We go through nine molecules from ChEMBL document CHEMBL1255184, “A novel series of positive modulators of the AMPA receptor: structure-based lead optimization” (Bioorg Med Chem Lett, 2010).

In brackets after ≈: the same amount, converted by molar mass. Activity calls are given as the source filed them. No cut-off for these calls is given here. Where only a bound is given, the exact number is not on record here.

One may read the microsomal CLint as the rate of metabolic loss divided by the concentration. Higher therefore signals faster metabolism. A word on the solubility: it is the dissolved amount per volume that the medium holds. Low values mean little dissolved substance, high ones much dissolved substance. The term half-life denotes how long it takes for the measured level to halve. The low end stands for fast loss, the high end for slow loss. In general, clearance refers to the rate of elimination divided by the concentration. Low readings indicate inefficient removal, high ones efficient removal. Broadly, the bioavailability is the share of a dose that reaches the circulation, judged against a reference dose that is usually intravenous. High values mean much systemic uptake, low ones little systemic uptake. A word on the Kp: it is tissue or fluid exposure divided by exposure in the circulation.

The nature of data set [1]: Intrinsic clearance in human microsomes. In kind it is ADME, Microsome.
Data set [2] can be described thus: Intrinsic clearance in rat microsomes. In kind it is ADME, Microsome.
The nature of data set [3]: Solubility of the compound. It counts as physicochemical.
The nature of data set [4]: Half life in Wistar rat at 2 mg/kg, iv. It counts as ADME, organism-based. Also noted: dose 2 mg/kg, route intravenous. The note with it: in vivo.
Data set [5] can be described thus: Volume of distribution at steady state in Wistar rat at 2 mg/kg, iv. In kind it is ADME, organism-based. Set-up: dose 2 mg/kg, route intravenous. Particulars: in vivo, read-out: Vdss.
The nature of data set [6]: Plasma clearance in Wistar rat at 2 mg/kg, iv. In kind it is ADME, organism-based. Set-up: dose 2 mg/kg, route intravenous.
Data set [7] is described as follows: Oral bioavailability in Wistar rat at 10 mg/kg. In kind it is ADME, organism-based. The note with it: in vivo.
Data set [8] is described as follows: Ratio of drug level in brain to plasma in Wistar rat. In kind it is ADME.
A short description of data set [9]: Inhibition of kainate receptor.
Data set [10] can be described thus: Inhibition of NMDA receptor.
Data set [11] can be described thus: Inhibition of GABA receptor.
Data set [12] concerns Rattus norvegicus. Put plainly: Potentiation of AMPA-induced single unit activity in iv dosed hippocampus of anesthetized rat by electrophysiology assay. In kind it is functional. Particulars: read-out: MED.

As to `NC(=O)c1c(NC(=O)Cn2nc(C(F)(F)F)c3c2CCNC3)sc2c1CCCC2`, the microsomal CLint in data set [1] was determined as 57 µL/min/mg; in data set [2], 33 µL/min/mg.
`O=C(Cn1nc(C(F)(F)F)c2c1CCCC2)Nc1sc2c(c1C(=O)N[C@@H]1CCNC1)CCCC2` had a solubility in data set [3] of 20 µg/mL (≈ 40.4 µM). This molecule gave a half-life in [4] of 3.8 h. The Vd in data set [5] worked out at 0.5 L/kg. This molecule also came in with a clearance in data set [6] of 2.3 mL/min/kg. The bioavailability in [7] is 4%. Further, in data set [8], the Kp stood at 1.03.
In turn, `CNCc1cn(CC(=O)Nc2sc3c(c2C(N)=O)CCCC3)nc1C(C)(C)C` displayed a solubility in [3] of 79 µg/mL (≈ 196 µM). For the same molecule, the microsomal CLint in data set [1] and in data set [2] was 15 µL/min/mg each time. Further, in data set [4], the half-life was 1.9 h. The Vd in data set [5] is 1.1 L/kg. In data set [6], this molecule showed a clearance of 9 mL/min/kg. Moreover, in data set [7], the bioavailability turned out to be 16%.
Turning to `CNCc1cn(CCC(=O)Nc2sc3c(c2C(N)=O)CCCC3)nc1C(F)(F)F`, the microsomal CLint in data set [1] amounted to 89 µL/min/mg; in data set [2] it was 49 µL/min/mg.
Turning to `CNCc1cn(CC(=O)Nc2sc3c(c2C(=O)NC)CCCC3)nc1C(F)(F)F`, the microsomal CLint worked out at 16 µL/min/mg in data set [1] and 33 µL/min/mg in data set [2]. The molecule also gave a clearance in data set [6] of 43 mL/min/kg.
On to `CNCc1cn(CC(=O)Nc2sc3c(c2C(N)=O)CCCC3)nc1C(F)(F)F`, for which, in data set [3], the concentration in solution (solubility) came to 65 µg/mL (≈ 156 µM). The microsomal CLint in data set [1] was 33 µL/min/mg; in data set [2], less than 12 µL/min/mg. In addition, the half-life in data set [4] is 1.5 h. Also, in data set [5], the Vd was determined as 2.4 L/kg. This molecule also displayed a clearance in data set [6] of 23 mL/min/kg. Besides, the bioavailability in [7] was determined as 15%.
As for `CCNCc1cn(CC(=O)Nc2sc3c(c2C(N)=O)CCCC3)nc1C(F)(F)F`, the solubility in data set [3] was 107 µg/mL (≈ 249 µM). The microsomal CLint in [1] is less than 12 µL/min/mg; in data set [2], less than 19 µL/min/mg. This molecule also gave a half-life in data set [4] of 1.1 h. In addition, the Vd in data set [5] amounted to 0.6 L/kg. This molecule also returned a clearance in [6] of 15 mL/min/kg. The molecule further displayed a bioavailability in [7] of 43%. In [8], the Kp was 0.05. Moreover, the inhibition result in data set [9], in [10] and in data set [11] was “inactive” each time. Also, the minimal effective dose in data set [12] was 0.3 mg/kg.
In the case of `CCN(CC)Cc1cn(CC(=O)Nc2sc3c(c2C(N)=O)CCCC3)nc1C(F)(F)F`, the microsomal CLint in data set [1] and in [2] was more than 270 µL/min/mg in each case.
Consider `O=C(Cn1nc(C(F)(F)F)c2c1CCCC2)Nc1sc2c(c1CO)CCCC2`, for which the microsomal CLint in data set [1] and in data set [2] was more than 270 µL/min/mg each time.
